Results from patent US4681940A, “5-[3-[[2-quinolyl]methoxy]phenyl]-1,3-oxazoles” (American Home Products Corporation, priority 1985, dated 1987).
Where a name gives a salt, the structure may show the parent alone.

Tests used:
[1] = system: LTD4 induced bronchoconstriction; experiment: In vivo inhibition of bronchospasm induced in guinea pigs by exogenously administered leukotrienes C4 and/or D4; set-up: species or system guinea pig (male Hartley); details: 10 minutes before induction of bronchospasm
Method: The assay of this Example measures the in vivo ability of the compounds of the invention to inhibit the bronchospasm induced in guinea pigs by the exogenously administered leukotrienes C4 and/or D4.
This assay is carried out as follows:
Male Hartley strain guinea pigs (350-600 g) are anesthetized with pentobarbital sodium (50 mg/kg, i.p.). The jugular vein is cannulated for injection of drugs and the carotid artery for monitoring blood pressure. The trachea is cannulated for artificial ventilation by a miniature Starling pump and for indirect measurement of respiratory volume changes as described infra. The animals are then pretreated with succinylcholine (2 mg/kg i.v.) and indomethacin (10 mg/kg i.v. in trizma 8.3 buffer, 9 minutes prior to leukotriene challenge). Submaximal bronchoconstrictor responses are established in control animals by varying the dose-levels of leukotriene. Intravenous dose-levels for LTC4 range from 0.4 to 0.6 μg/kg and for LTD4 the range is from 0.3 to 0.5 μg/kg. The aerosol bronchoprovocation dose for LTC4 is generated from 1.6 μM solution and for LTD4 from a 2.0 μM solution.
Test drugs (dissolved in a solvent such as propylene glycol, polyethylene glycol 400 or saline) are administered either intraduodenally, by aerosol or intragastrically at 2 or 10 minutes before induction of bronchospasm by administration of either LTC4 or LTD4 at the predetermined dose-levels. Aerosols of soluble drugs or leukotrienes are produced in-line for 10 seconds only by actuation of an ultrasonic nebulizer (Monaghan). Aerosolized drug dosage is expressed in terms of solution concentration and by a fixed aerosol exposure time (approximately 10 seconds). Control animals receive solvent (2 ml/kg i.d. or appropriate aerosol) in place of drug.
(§1) Respiratory volume changes are determined by a calibrated piston whose travel is recorded, via a linear transducer, on a Beckman Dynograph recorder. Maximal bronchoconstrictor volume is determined by clamping off the trachea at the end of the experiment. Overflow volumes at 1, 3 and 5 minutes are obtained from the recorded charts.
Area under the volume overflow curve (AUC) is estimated, using the overflow values at 1, 3 and 5 minutes, and expressed as a percentage of the maximal overflow AUC (equation 1): [formula] Drug effects are reported as percent inhibition of % max AUC values obtained from appropriate control animals (equation 2): [formula]
Student's t-test for unpaired data is used to determine statistical significance (p<0.05). IC50 values can also be determined by inverse prediction from linear regression lines through points between 10 and 90% inhibition.

[2] = system: synthesis of 5-HETE by rat glycogen elicited polymorphonuclear leukocytes; experiment: Inhibition of 5-HETE synthesis by rat glycogen-elicited polymorphonuclear leukocytes; assay type: cell-based, rat (female Wistar); details: rat PMN
Method: The assay of this Example measures the ability of the compounds of the invention to inhibit the synthesis of 5 -HETE by rat glycogen elicited polymorphonuclear leukocytes.
(§2) The assay is carried out as follows:
Peritoneal PMN are obtained from female Wistar rats (150-250 g) that received an i.p. injection of 6% glycogen (10 ml). After 24 hours, rats are killed by CO2 asphyxiation and peritoneal cells are harvested by peritoneal lavage using Ca^++ and Mg^++ free Hanks' balanced salt solution (HBSS). The peritoneal exudate is centrifuged at 400 g for 10 minutes. After centrifugation, the lavaged fluid is removed and the cell pellet is resuspended in HBSS containing Ca^++ and Mg^++ and 10 mM L-cysteine at a concentration of 2×10^7 cells/ml. To 1 ml portions of cell suspension, test drugs or vehicle are added and incubated at 37° C. for 10 minutes. Following this preincubation, the calcium ionophore (10 μM), A23187, is added together with 0.5 μCi [^14 C] arachidonic acid and further incubated for 10 minutes. The reaction is stopped by the addition of ice cold water (3 ml) and acidifying to pH 3.5. Lipoxygenase products are then extracted twice into diethyl ether. The pooled ether extracts are evaporated to dryness under nitrogen and the residue is redissolved in a small volume of methanol and spotted on aluminum backed pre-coated thin layer chromatographic plates. The samples are then co-chromatographed with authentic reference 5-HETE in the solvent system--hexane:ether:acetic acid (50:50:3). After chromatography, the areas associated with 5-HETE standard are identified by autoradiography, cut out and quantitated by liquid scintillation.
The compounds of this invention are tested in this assay at a level of 50 μm, unless otherwise noted. The results are summarized in Table 1, where those compounds having an inhibition of >50% are designated by a "+". Some results are expressed as an IC50 value.

[3] = system: ovalbumin induced bronchospasm; experiment: In vivo inhibition of ovalbumin-induced bronchospasm mediated by endogenous mediators in sensitized guinea pigs; set-up: species or system guinea pig (male Hartley); details: 50 mg/kg intraduodenal, 10 minutes before ovalbumin challenge
Method: The assay of this Example measures the in vivo ability of the compounds of the invention to inhibit the bronchospasm induced in guinea pigs by endogenous mediators of the bronchoconstriction.
as §2
Male Hartley strain guinea pigs weighing 250-350 g are sensitized to chicken ovalbumin (OA) (10 mg i.p.) on days 1 and 3 and used starting on day 26. The animals are anesthetized with pentobarbital sodium (50 mg/kg, i.p.), bilateral vagotomy is performed, and the jugular vein is cannulated for injection of drugs and the carotid artery for monitoring blood pressure. The trachea is cannulated for artificial ventilation by miniature Starling pump and for indirect measurement of respiratory volume changes as described, infra. Succinylcholine (2 mg/kg, i.v.) is administered to arrest spontaneous respiration. […]
as §1, with “volumes at minutes 1, 3” for “volumes at 1, 3”, “and 5 are obtained” for “and 5 minutes are obtained”
Area under the volume overflow curve (AUC) is estimated, using the overflow values at 1, 3 and 5 minutes, and expressed as a percentage of the maximal overflow AUC (equation 1): [formula] […]

CCC1=NCC(c2cccc(OCc3ccc4ccccc4n3)c2)O1 (stereo not drawn) [Example 5, 2-Ethyl-4,5-dihydro-5-[3-[(2-quinolinyl)methoxy]phenyl]-1,3-oxazole]
% Inhibition ([1]; 25 mg/kg, intraduodenally): 77%

CN1CC(c2cccc(OCc3ccc4ccccc4n3)c2)OC1=S (stereo not drawn) [Example 2, 5-[3-[(2-Quinolinyl)methoxy]phenyl]-3-methyl-2-thiaoxazolidone]
>50% Inhibitory at 50 μm [2]: + (inhibition of >50%)

c1ccc(C2=NCC(c3cccc(OCc4ccc5ccccc5n4)c3)O2)nc1 (stereo not drawn) [Example 6, 4,5-Dihydro-5-[3-[(2-quinolinyl)methoxy]phenyl]-2-(2-pyridyl)-1,3-oxazole]
% Inhibition ([1]; 25 mg/kg, intraduodenally): 96%

CN1C[C@H](c2cccc(OCc3ccc4ccccc4n3)c2)OC1=O [Example 1 (as free base, S-enantiomer), 5-[3-[(2-Quinolinyl)methoxy]phenyl]-3-methyl-2-oxazolidone]
% Inhibition ([1]; 50 mg/kg, intraduodenally): 99%

CN1CC(c2cccc(OCc3ccc4ccccc4n3)c2)OC1=O (stereo not drawn) [1 (as HCL salt), 5-[3-[(2-Quinolinyl)methoxy]phenyl]-3-methyl-2-oxazolidone]
% Inhibition ([1]; 50 mg/kg, intraduodenally): 65%
% Inhibition ([1]; 50 mg/kg, intragastrically): 46%

c1cc(OCc2ccc3ccccc3n2)cc(C2CN=C(c3cccs3)O2)c1 (stereo not drawn) [Example 7, 4,5-Dihydro-5-[3-[(2-quinolinyl)methoxy]phenyl]-2-(2-thienyl)-1,3-oxazole]
% Inhibition ([1]; 50 mg/kg, intraduodenally): 41%

CN1CC(c2cccc(OCc3nc4ccccc4n3C)c2)OC1=O (stereo not drawn) [Example 4, 5-[3-[(1-Methyl-2-benzimidazoyl)]methoxy]phenyl-3-methyl-2-oxazolidone]
% Inhibition ([1]; 50 mg/kg, intraduodenally): 65%

CN1C[C@@H](c2cccc(OCc3ccc4ccccc4n3)c2)OC1=O [Example 1 (as free base, R-enantiomer), 5-[3-[(2-Quinolinyl)methoxy]phenyl]-3-methyl-2-oxazolidone]
% Inhibition ([1]; 50 mg/kg, intraduodenally): 91%
% Inhibition ([1]; 50 mg/kg, intragastrically): 65%
ED50 ([1]; Cavia porcellus, 10 min, printed on the intraduodenal line, read-out: IC50 (the source's name)): 8.6 mg/kg

CCOC(=O)CC1=NCC(c2cccc(OCc3ccc4ccccc4n3)c2)O1 (stereo not drawn) [Example 8, 2-Ethoxycarbonylmethyl-4,5-dihydro-5-[3-[(2-quinolinyl)methoxy]phenyl]-1,3-oxazole]
% Inhibition ([1]; 25 mg/kg, intraduodenally): 72%

CN1C[C@@H](c2cccc(OCc3ccc4ccccc4n3)c2)OC1=O [Example 1, 5-[3-[(2-Quinolinyl)methoxy]phenyl]-3-methyl-2-oxazolidone]
IC50 ([2]; Leukocyte): 19.6 µM
>50% Inhibitory at 50 μm [2]: + (inhibition of >50%)

CN1CC(c2cccc(OCc3ccc4ccccc4n3)c2)OC1=O (stereo not drawn) [1 (as free base), 5-[3-[(2-Quinolinyl)methoxy]phenyl]-3-methyl-2-oxazolidone]
% Inhibition of Max AUC [3]: 69%
